Measurements: patent US20140328847A1, “MITIGATION OF DISEASE BY INHIBITION OF GALECTIN-12” (The Regents of the University of California, priority 2011, published 2014)
Each block holds one compound with its values, some of them ahead of it.

Assays:
galectin-12 [1] = molecular target: T1, galectin-12 (Mus musculus, UniProt Q91VD1); assay: Binding of galectin-12 from mouse adipocyte lysates to fetuin-agarose (Western blotting); details: lactose 25 mM; mouse epididymal adipocyte lysates; FIG. 5A
T1 construct: from tissue; host or cells: primary mouse adipocytes from epididymal fat depot
T1 sequence (Q91VD1 1-314): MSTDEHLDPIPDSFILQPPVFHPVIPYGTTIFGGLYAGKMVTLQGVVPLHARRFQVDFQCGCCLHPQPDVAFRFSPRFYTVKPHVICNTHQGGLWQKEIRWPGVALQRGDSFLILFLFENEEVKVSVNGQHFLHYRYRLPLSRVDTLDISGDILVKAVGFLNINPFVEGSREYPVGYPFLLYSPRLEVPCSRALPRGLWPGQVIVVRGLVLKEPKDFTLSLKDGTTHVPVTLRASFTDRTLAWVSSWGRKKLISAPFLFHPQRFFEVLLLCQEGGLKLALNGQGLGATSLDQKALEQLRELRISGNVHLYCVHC
Experimental: (§1) FIGS. 5A-B illustrate association of galectin-12 with lipid droplets is not inhibited by lactose. (A) Mouse adipocytes from epididymal fat depot were lyzed and the lysates were incubated with fetuin-agarose, in the absence (−) or presence (+) of 25 mM lactose. Bound proteins were eluted with SDS-sample buffer and galectin-12 was detected by Western blotting. (B) Lipd droplets were purified from mouse adipocyte homogenates in the absence (−) or presence (+) of 25 mM lactose. Galectin-12 was detected as in (A).
(§2) To test whether galectin-12 association with lipid droplets is glycan-dependent, we also purified lipid droplets in the presence of lactose.

galectin-12 [2] = molecular target: T1, galectin-12; assay: Association of galectin-12 with lipid droplets purified from mouse adipocyte homogenates; details: lactose 25 mM present during lipid droplet purification; FIG. 5B
Experimental: as §1, §2

[3] = test system: adipocytes from Lgals12^+/+ and Lgals12^−/− mice; assay: Lipolysis assay in primary adipocytes from Lgals12+/+ and Lgals12−/− mice (glycerol release); type: cell-based, mouse; details: for lipolysis (glycerol release): 1 h, 37° C.; for cAMP/dbcAMP-stimulated lipolysis: in the presence of adenylyl cyclase inhibitor SQ 22536, FIG. 9G
Experimental: (A) Adipocytes from the epididymal fat depots of Lgals12^+/+ and Lgals12^-/- mice were incubated with indicated concentrations of isoproterenol before being separated into cytosol and fat cake. Lipolytic proteins in each fraction were analyzed by Western blotting with indicated antibodies. (B) Quantification of lipid droplet (LD)-associated p-HSL and HSL by densitometry of Western blots (n=3 for each genotype). […] (D) Quantification of LD-associated ATGL by densitometry of Western blots (n=3 for each genotype). […] Asterisks denote statistical significance (p<0.05). Results are representative of three experiments. FIGS. 10A-C illustrate (A) Adipocytes from Lgals12^+/+ and -/- mice (n=3) were incubated with 1 U/ml ADA and increasing concentrations of PIA for 1 h at 37° C. and glycerol release was measured. Results were expressed as both absolute values and as % of glycerol release in the absence of PIA. (B) Adipocytes from Lgals12+/+ and Lgals12^-/- mice (n=3 each) were incubated with or without 10 μM cilostamide (Cilo) or 25 μM rolipram (Roli), individually or in combination, for 2 h at 37° C. Lipolysis was determined by measuring glycerol release. (C) Insulin suppression of lipolysis in adipocytes stimulated with 20 nM isoproterenol (% of maximal release in the absence of insulin). Asterisks denote statistical significance (p<0.05). Similar results were obtained in three experiments. Adipocytes were isolated from gonadal fat depots in Krebs-Ringer HEPES (KRH) buffer by collagenase digestion and floatation ([…] Lipid Res 47:1859-1864). After the final wash, cell density and triglyceride content of the adipocyte suspension were determined as described (Fine […] (1997) Int J Obes Relat Metab Disord 21:764-768.). We monitored lipolysis in adipocytes isolated from random-fed Lgals12^+/+ and Lgals12^-/- mice on regular diet, by measuring fatty acid and glycerol release, as described ([…] Lipid Res 47:1859-1864), with minor modifications. Briefly, 2.5×10^5 cells were incubated in 0.3 ml KRH/3% FAA-free BSA (for basal lipolysis), or KRH/3% FAA-free BSA containing indicated concentrations of lipolysis stimulators or inhibitors (Sigma) for 0-2 h at 37° C. with shaking at 150 rpm. At the end of the incubation, glycerol and NEFA released into the infranatant was determined with the Free Glycerol Reagent (Sigma) and the Nonesterified Fatty Acids Kit ([…]), respectively.

- binding of galectin-12 to fetuin-agarose (galectin-12 [1]): completely inhibited
- galectin-12 association with lipid droplets (galectin-12 [2]): did not affect
Compound: OC[C@H]1O[C@@H](O[C@H]2[C@H](O)[C@@H](O)C(O)O[C@@H]2CO)[C@H](O)[C@@H](O)[C@H]1O (stereo partly shown) [Lactose]

Compound: CC(Cc1ccccc1)Nc1ncnc2c1ncn2[C@@H]1O[C@H](CO)[C@@H](O)[C@H]1O (single isomer, unassigned; (-)) [PIA, (−)-N6-(2-Phenylisopropyl)adenosine]
- lipolysis (glycerol release) ([3]; increasing concentrations of PIA with 1 U/ml ADA, FIG. 10A): suppressed lipolysis in both genotypes with similar efficiencies

Compound: CCCC(=O)Nc1ncnc2c1ncn2[C@@H]1O[C@@H]2COP(=O)(O)O[C@H]2[C@H]1OC(=O)CCC [dbcAMP, dibutyryl cAMP]
- cAMP/dbcAMP-stimulated lipolysis [3]: induced comparable lipolysis in adipocytes of the two genotypes

Compound: CC(C)Cn1c(=O)n(C)c(=O)c2[nH]cnc21 [IBMX, 3-isobutyl-1-methylxanthine]
- lipolysis (glycerol release) ([3]; 0.1 mM IBMX, both Lgals12+/+ and Lgals12−/− adipocytes, FIG. 9F): greatly enhanced

Compound: Nc1ncnc2c1ncn2[C@@H]1O[C@@H]2COP(=O)(O)O[C@H]2[C@H]1O [cAMP, cyclic adenosine monophosphate]
- cAMP/dbcAMP-stimulated lipolysis [3]: stimulated greater lipolysis in Lgals12^−/− adipocytes than in Lgals12^+/+ adipocytes

Compound: insulin
- insulin suppression of lipolysis ([3]; Lgals12−/− adipocytes stimulated with 20 nM isoproterenol, FIG. 10C): remained sensitive
